Data: PMC6979384, “Characterization of the plant homeodomain (PHD) reader family for their histone tail interactions” (Epigenetics & Chromatin, 2020)

Assays:
Test in all cases: Histone peptide microarray
Assay type in all cases: binding, human
Conditions in all cases: total n = 4
[1] = tested on: PHF21A
Outline: (§1)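 Readout is array binding signal, reported as the mean and standard deviation over four replicates. Each purified GST-fused PHD domain was incubated at 0.5 μM with a library of 293 modified histone peptides.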

[2] = tested on: SP140L
Outline: as §1

[3] = tested on: KDM5A (3)
Outline: as §1

[4] = tested on: ING2
Outline: as §1

[5] = tested on: ING1
Outline: as §1

[6] = tested on: TAF3
Outline: as §1

[7] = tested on: PHRF1 (RP)
Outline: as §1

[8] = tested on: CHD5 (PPCC)
Outline: as §1

[9] = tested on: PHF23
Outline: as §1

[10] = tested on: PHF8
Outline: as §1

[11] = tested on: DPF2 (PPC2W2)
Outline: as §1

[12] = tested on: AIRE (PP)
Outline: as §1

[13] = tested on: CHD4 (PPCC)
Outline: as §1

[14] = tested on: ING5
Outline: as §1

[15] = tested on: DIDO1
Outline: as §1

[16] = tested on: ING3
Outline: as §1

[17] = tested on: MORC3 (CW)
Outline: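 Each reader, produced as a GST fusion and purified, was tested at 0.5 μM on synthetic histone peptides (293 in total) carrying single or combinatorial marks. Intensities averaged over four replicates.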

[18] = tested on: KDM5B (1)
Outline: as §1

[19] = tested on: PHF13
Outline: as §1

[20] = tested on: TRIM66 (PB)
Outline: as §1

[21] = tested on: PHF2
Outline: as §1

[22] = tested on: MLL5
Outline: as §1

[23] = tested on: KDM5B (3)
Outline: as §1

[24] = tested on: CHD5 (PCC)
Outline: as §1

[25] = tested on: KDM7A
Outline: as §1

[26] = tested on: KDM4C (TTP)
Outline: as §1

[27] = tested on: RAG2
Outline: as §1

[28] = tested on: KDM5A (1)
Outline: as §1

[29] = tested on: BAZ2B
Outline: as §1

[30] = tested on: ING4
Outline: as §1

[31] = tested on: BPTF (PB)
Outline: as §1

[32] = sheet "Array Heatmap", GST-tagged reader, histone peptide array

H4K5ac + K8me1 + K12ac + K16ac: H4 1-23
Array Heatmap value (peptide array signal) ([1]; PHF21A, sheet "Array Heatmap", each array performed twice): 0.4984 | Array Heatmap value (peptide array signal) ([2]; SP140L, sheet "Array Heatmap", each array performed twice): 0.3759 | Array Heatmap value (peptide array signal) ([3]; KDM5A (3), sheet "Array Heatmap", each array performed twice): 0.4998 | Array Heatmap value (peptide array signal) ([4]; ING2, sheet "Array Heatmap", each array performed twice): 0.602 | Array Heatmap value (peptide array signal) ([5]; ING1, sheet "Array Heatmap", each array performed twice): 0.5458 | Array Heatmap value (peptide array signal) ([6]; TAF3, sheet "Array Heatmap", each array performed twice): 0.2847 | Array Heatmap value (peptide array signal) ([7]; PHRF1 (RP), sheet "Array Heatmap", each array performed twice): 0.4565 | Array Heatmap value (peptide array signal) ([8]; CHD5 (PPCC), sheet "Array Heatmap", each array performed twice): 0.5973 | Array Heatmap value (peptide array signal) ([9]; PHF23, sheet "Array Heatmap", each array performed twice): 0.5588 | Array Heatmap value (peptide array signal) ([10]; PHF8, sheet "Array Heatmap", each array performed twice): 0.4058 | Array Heatmap value (peptide array signal) ([11]; DPF2 (PPC2W2), sheet "Array Heatmap", each array performed twice): 0.6672 | Array Heatmap value (peptide array signal) ([12]; AIRE (PP), sheet "Array Heatmap", each array performed twice): 0.5672 | Array Heatmap value (peptide array signal) ([13]; CHD4 (PPCC), sheet "Array Heatmap", each array performed twice): 0.5762 | Array Heatmap value (peptide array signal) ([14]; ING5, sheet "Array Heatmap", each array performed twice): 0.3988 | Array Heatmap value (peptide array signal) ([15]; DIDO1, sheet "Array Heatmap", each array performed twice): 0.7292 | Array Heatmap value (peptide array signal) ([16]; ING3, sheet "Array Heatmap", each array performed twice): 0.4952 | Array Heatmap value (peptide array signal) ([17]; MORC3 (CW), sheet "Array Heatmap", each array performed twice): 0.4169 | Array Heatmap value (peptide array signal) ([18]; KDM5B (1), sheet "Array Heatmap", each array performed twice): 0.7009 | Array Heatmap value (peptide array signal) ([19]; PHF13, sheet "Array Heatmap", each array performed twice): 0.643 | Array Heatmap value (peptide array signal) ([20]; TRIM66 (PB), sheet "Array Heatmap", each array performed twice): 0.6845 | Array Heatmap value (peptide array signal) ([21]; PHF2, sheet "Array Heatmap", each array performed twice): 0.5076 | Array Heatmap value (peptide array signal) ([22]; MLL5, sheet "Array Heatmap", each array performed twice): 0.5641 | Array Heatmap value (peptide array signal) ([23]; KDM5B (3), sheet "Array Heatmap", each array performed twice): 0.4848 | Array Heatmap value (peptide array signal) ([24]; CHD5 (PCC), sheet "Array Heatmap", each array performed twice): 0.8607 | Array Heatmap value (peptide array signal) ([25]; KDM7A, sheet "Array Heatmap", each array performed twice): 0.4269 | Array Heatmap value (peptide array signal) ([26]; KDM4C (TTP), sheet "Array Heatmap", each array performed twice): 0.5456 | Array Heatmap value (peptide array signal) ([27]; RAG2, sheet "Array Heatmap", each array performed twice): 0.2535 | Array Heatmap value (peptide array signal) ([28]; KDM5A (1), sheet "Array Heatmap", each array performed twice): 0.5072 | Array Heatmap value (peptide array signal) ([29]; BAZ2B, sheet "Array Heatmap", each array performed twice): 0.5032 | Array Heatmap value (peptide array signal) ([30]; ING4, sheet "Array Heatmap", each array performed twice): 0.5013 | Array Heatmap value (peptide array signal) ([31]; BPTF (PB), sheet "Array Heatmap", each array performed twice): 0.382

H3K4me3 + K9ac + K14ac + K18ac: H3 1-20
Array Heatmap signal (histone peptide microarray) ([1]; GST-tagged PHF21A, sheet Array Heatmap, each array performed twice): 0.4925 | Array Heatmap signal (histone peptide microarray) ([2]; GST-tagged SP140L, sheet Array Heatmap, each array performed twice): 0.3627 | Array Heatmap signal (histone peptide microarray) ([3]; GST-tagged KDM5A (3), sheet Array Heatmap, each array performed twice): 0.9909 | Array Heatmap signal (histone peptide microarray) ([4]; GST-tagged ING2, sheet Array Heatmap, each array performed twice): 0.8772 | Array Heatmap signal (histone peptide microarray) ([5]; GST-tagged ING1, sheet Array Heatmap, each array performed twice): 0.7787 | Array Heatmap signal (histone peptide microarray) ([6]; GST-tagged TAF3, sheet Array Heatmap, each array performed twice): 0.6574 | Array Heatmap signal (histone peptide microarray) ([7]; GST-tagged PHRF1 (RP), sheet Array Heatmap, each array performed twice): 0.5895 | Array Heatmap signal (histone peptide microarray) ([8]; GST-tagged CHD5 (PPCC = Dual PHD + Dual Chromodomain), sheet Array Heatmap, each array performed twice): 0.5931 | Array Heatmap signal (histone peptide microarray) ([9]; GST-tagged PHF23, sheet Array Heatmap, each array performed twice): 0.8373 | Array Heatmap signal (histone peptide microarray) ([10]; GST-tagged PHF8, sheet Array Heatmap, each array performed twice): 0.7502 | Array Heatmap signal (histone peptide microarray) ([11]; GST-tagged DPF2 (PPC2W2 = Dual PHD + C2W2-type Zn-finger), sheet Array Heatmap, each array performed twice): 0.7652 | Array Heatmap signal (histone peptide microarray) ([12]; GST-tagged AIRE (PP), sheet Array Heatmap, each array performed twice): 0.4865 | Array Heatmap signal (histone peptide microarray) ([13]; GST-tagged CHD4 (PPCC = Dual PHD + Dual Chromodomain), sheet Array Heatmap, each array performed twice): 0.5745 | Array Heatmap signal (histone peptide microarray) ([14]; GST-tagged ING5, sheet Array Heatmap, each array performed twice): 0.4716 | Array Heatmap signal (histone peptide microarray) ([15]; GST-tagged DIDO1, sheet Array Heatmap, each array performed twice): 0.9126 | Array Heatmap signal (histone peptide microarray) ([16]; GST-tagged ING3, sheet Array Heatmap, each array performed twice): 0.8559 | Array Heatmap signal (histone peptide microarray) ([17]; GST-tagged MORC3 (CW = CW-type Zn-finger), sheet Array Heatmap, each array performed twice): 1 | Array Heatmap signal (histone peptide microarray) ([18]; GST-tagged KDM5B (1), sheet Array Heatmap, each array performed twice): 0.7481 | Array Heatmap signal (histone peptide microarray) ([19]; GST-tagged PHF13, sheet Array Heatmap, each array performed twice): 0.7829 | Array Heatmap signal (histone peptide microarray) ([20]; GST-tagged TRIM66 (PB = PHD + Bromodomain), sheet Array Heatmap, each array performed twice): 0.6004 | Array Heatmap signal (histone peptide microarray) ([21]; GST-tagged PHF2, sheet Array Heatmap, each array performed twice): 0.7873 | Array Heatmap signal (histone peptide microarray) ([22]; GST-tagged MLL5, sheet Array Heatmap, each array performed twice): 0.936 | Array Heatmap signal (histone peptide microarray) ([23]; GST-tagged KDM5B (3), sheet Array Heatmap, each array performed twice): 0.8339 | Array Heatmap signal (histone peptide microarray) ([24]; GST-tagged CHD5 (PCC = PHD + Dual Chromodomain), sheet Array Heatmap, each array performed twice): 0.8618 | Array Heatmap signal (histone peptide microarray) ([25]; GST-tagged KDM7A, sheet Array Heatmap, each array performed twice): 0.5567 | Array Heatmap signal (histone peptide microarray) ([26]; GST-tagged KDM4C (TTP = Tandem Tudor domain + PHD), sheet Array Heatmap, each array performed twice): 0.6463 | Array Heatmap signal (histone peptide microarray) ([27]; GST-tagged RAG2, sheet Array Heatmap, each array performed twice): 0.8746 | Array Heatmap signal (histone peptide microarray) ([28]; GST-tagged KDM5A (1), sheet Array Heatmap, each array performed twice): 0.4983 | Array Heatmap signal (histone peptide microarray) ([29]; GST-tagged BAZ2B, sheet Array Heatmap, each array performed twice): 0.6196 | Array Heatmap signal (histone peptide microarray) ([30]; GST-tagged ING4, sheet Array Heatmap, each array performed twice): 0.625 | Array Heatmap signal (histone peptide microarray) ([31]; GST-tagged BPTF (PB = PHD + Bromodomain), sheet Array Heatmap, each array performed twice): 0.7619

H3K4me3 + K9me3: H3 1-20
Array Heatmap signal, PHF21A [1, 32]: 0.4927 | Array Heatmap signal, SP140L [2, 32]: 0.3795 | Array Heatmap signal, KDM5A (3) [3, 32]: 0.6222 | Array Heatmap signal, ING2 [4, 32]: 0.7112 | Array Heatmap signal, ING1 [5, 32]: 0.6677 | Array Heatmap signal, TAF3 [6, 32]: 0.3501 | Array Heatmap signal, PHRF1 (RP) [7, 32]: 0.5034 | Array Heatmap signal, CHD5 (PPCC) [8, 32]: 0.5893 | Array Heatmap signal, PHF23 [9, 32]: 0.5934 | Array Heatmap signal, PHF8 [10, 32]: 0.4712 | Array Heatmap signal, DPF2 (PPC2W2) [11, 32]: 0.7108 | Array Heatmap signal, AIRE (PP) [12, 32]: 0.4775 | Array Heatmap signal, CHD4 (PPCC) [13, 32]: 0.5681 | Array Heatmap signal, ING5 [14, 32]: 0.4091 | Array Heatmap signal, DIDO1 [15, 32]: 0.7556 | Array Heatmap signal, ING3 [16, 32]: 0.5385 | Array Heatmap signal, MORC3 (CW) [17, 32]: 0.5189 | Array Heatmap signal, KDM5B (1) [18, 32]: 0.6368 | Array Heatmap signal, PHF13 [19, 32]: 0.6561 | Array Heatmap signal, TRIM66 (PB) [20, 32]: 0.5701 | Array Heatmap signal, PHF2 [21, 32]: 0.6501 | Array Heatmap signal, MLL5 [22, 32]: 0.6708 | Array Heatmap signal, KDM5B (3) [23, 32]: 0.5506 | Array Heatmap signal, CHD5 (PCC) [24, 32]: 0.7845 | Array Heatmap signal, KDM7A [25, 32]: 0.4063 | Array Heatmap signal, KDM4C (TTP) [26, 32]: 0.5629 | Array Heatmap signal, RAG2 [27, 32]: 0.359 | Array Heatmap signal, KDM5A (1) [28, 32]: 0.4868 | Array Heatmap signal, BAZ2B [29, 32]: 0.4905 | Array Heatmap signal, ING4 [30, 32]: 0.4847 | Array Heatmap signal, BPTF (PB) [31, 32]: 0.3806
